From the supplement of paper PMC10307832

Legend:
Assay in all cases: relative viability (nuclei count vs DMSO), 5 days (fraction); higher = more cells survive
Bleomycin + Vorinostat = compound: CC1=C(N=C(N=C1N)[C@H](CC(=O)N)NC[C@@H](C(=O)N)N)C(=O)N[C@@H]([C@H](C2=CN=CN2)OC3C(C(C(C(O3)CO)O)O)OC4C(C(C(C(O4)CO)O)OC(=O)N)O)C(=O)N[C@H](C)[C@H]([C@H](C)C(=O)N[C@@H]([C@@H](C)O)C(=O)NCCC5=NC(=CS5)C6=NC(=CS6)C(=O)NCCC[S+](C)C)O [Bleomycin] + O=C(CCCCCCC(=O)Nc1ccccc1)NO [Vorinostat] (partner 1 µM); settings: main component drawn
In short: (§1)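 Cells from lung cancer lines were seeded into 1536-well plates and, one day later, dosed by pin tool. Treatments were either a single drug or a fixed dose of an anchor drug with five library-drug doses (not always all listed) in √10 steps. After 5 days, nuclei were stained in a one-step fixation (final 0.05% Triton X-100, 1% formaldehyde, 1 ug/ml Hoechst) and counted on 4× images, and relative viability is the treated-to-vehicle nuclei ratio, as the median of duplicate plates.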

Etoposide + Tozasertib = compound: COc1cc([C@@H]2c3cc4c(cc3[C@@H](O[C@@H]3O[C@@H]5CO[C@@H](C)O[C@H]5[C@H](O)[C@H]3O)[C@H]3COC(=O)[C@H]23)OCO4)cc(OC)c1O [Etoposide] + Cc1cc(Nc2cc(N3CCN(C)CC3)nc(Sc3ccc(NC(=O)C4CC4)cc3)n2)n[nH]1 [Tozasertib] (partner 0.1 µM)
In short: as §1

Etoposide + Luminespib = compound: COc1cc([C@@H]2c3cc4c(cc3[C@@H](O[C@@H]3O[C@@H]5CO[C@@H](C)O[C@H]5[C@H](O)[C@H]3O)[C@H]3COC(=O)[C@H]23)OCO4)cc(OC)c1O [Etoposide] + CCNC(=O)c1noc(-c2cc(C(C)C)c(O)cc2O)c1-c1ccc(CN2CCOCC2)cc1 [Luminespib] (partner 0.01 µM)
In short: as §1

Etoposide + Olaparib = compound: COc1cc([C@@H]2c3cc4c(cc3[C@@H](O[C@@H]3O[C@@H]5CO[C@@H](C)O[C@H]5[C@H](O)[C@H]3O)[C@H]3COC(=O)[C@H]23)OCO4)cc(OC)c1O [Etoposide] + O=C(c1cc(Cc2n[nH]c(=O)c3ccccc23)ccc1F)N1CCN(C(=O)C2CC2)CC1 [Olaparib] (partner 8 µM)
In short: as §1

| Cell Line | relative viability (Bleomycin + Vorinostat; first compound 0.01 µM) | relative viability (Bleomycin + Vorinostat; first compound 0.03162 µM) | relative viability (Bleomycin + Vorinostat; first compound 0.1 µM) | relative viability (Bleomycin + Vorinostat; first compound 0.3162 µM) | relative viability (Bleomycin + Vorinostat; first compound 1 µM) | relative viability (Etoposide + Tozasertib; first compound 0.01 µM) | relative viability (Etoposide + Tozasertib; first compound 0.03162 µM) | relative viability (Etoposide + Tozasertib; first compound 0.1 µM) | relative viability (Etoposide + Tozasertib; first compound 0.3162 µM) | relative viability (Etoposide + Tozasertib; first compound 1 µM) | relative viability (Etoposide + Luminespib; first compound 0.01 µM) | relative viability (Etoposide + Luminespib; first compound 0.03162 µM) | relative viability (Etoposide + Luminespib; first compound 0.1 µM) | relative viability (Etoposide + Luminespib; first compound 0.3162 µM) | relative viability (Etoposide + Luminespib; first compound 1 µM) | relative viability (Etoposide + Olaparib; first compound 0.01 µM) | relative viability (Etoposide + Olaparib; first compound 0.03162 µM) | relative viability (Etoposide + Olaparib; first compound 0.1 µM) | relative viability (Etoposide + Olaparib; first compound 0.3162 µM) | relative viability (Etoposide + Olaparib; first compound 1 µM) |
| --- | --- | --- | --- | --- | --- | --- | --- | --- | --- | --- | --- | --- | --- | --- | --- | --- | --- | --- | --- | --- |
| NCI-H1651 | 0.519 | 0.505 | 0.392 | 0.356 | 0.152 | 0.675 | 0.692 | 0.547 | 0.159 | 0.156 | 0.815 | 0.724 | 0.681 | 0.308 | 0.209 | 0.175 | 0.188 | 0.202 | 0.138 | 0.0965 |
| NCI-H460 | 0.4 | 0.221 | 0.158 | 0.0343 | 0.0306 | 0.396 | 0.369 | 0.338 | 0.0692 | 0.0251 | 0.0412 | 0.0382 | 0.0395 | 0.0281 | 0.0302 | 0.395 | 0.314 | 0.247 | 0.0642 | 0.047 |
| LCLC-103H | 0.678 | 0.625 | 0.704 | 0.654 | 0.417 | 0.427 | 0.574 | 0.459 | 0.526 | 0.35 | 0.924 | 1.17 | 0.954 | 0.832 | 0.541 | 0.786 | 0.803 | 0.77 | 0.665 | 0.383 |
| LCLC-97TM1 | 0.179 | 0.15 | 0.18 | 0.106 | 0.0733 | 0.201 | 0.2 | 0.208 | 0.19 | 0.144 | 0.788 | 0.78 | 0.465 | 0.175 | 0.154 | 0.423 | 0.458 | 0.229 | 0.113 | 0.0808 |
| NCI-H838 | 0.571 | 0.41 | 0.274 | 0.267 | 0.265 | 0.348 | 0.295 | 0.307 | 0.211 | 0.24 | 0.394 | 0.31 | 0.272 | 0.162 | 0.194 | 0.757 | 0.782 | 0.64 | 0.31 | 0.2 |
| NCI-H1355 | 0.599 | 0.627 | 0.676 | 0.325 | 0.207 | 0.515 | 0.536 | 0.433 | 0.313 | 0.228 | 0.635 | 0.765 | 0.403 | 0.338 | 0.201 | 0.682 | 0.769 | 0.574 | 0.332 | 0.221 |
| HOP-62 | 0.277 | 0.277 | 0.179 | 0.102 | 0.0753 | 0.388 | 0.386 | 0.366 | 0.279 | 0.203 | 0.855 | 0.977 | 0.866 | 0.638 | 0.307 | 0.48 | 0.478 | 0.557 | 0.197 | 0.215 |
| NCI-H2085 | 0.777 | 0.721 | 0.679 | 0.378 | 0.386 | 0.783 | 0.772 | 0.762 | 0.727 | 0.478 | 0.34 | 0.514 | 0.451 | 0.338 | 0.265 | 0.755 | 0.731 | 0.746 | 0.375 | 0.3 |
